Assay results from patent publication US20100040762A1 (Plantextrakt GmbH & Co. KG, priority 2006, published 2010).

How the values were obtained:
[1] = tested on: isolated rat brain hippocampal section preparation; assay: isolated rat brain hippocampal section preparation, extra-cellular field potentials after electrical stimulation; details: in vitro, single stimulus excitation and theta-burst stimulation
Experimental: The measured field potentials were recorded after a single stimulus excitation and theta-burst stimulation.

Fischer-344 rats = assay: tele-stereo-EEG on unrestrained rats; assay type: in vivo, rat; details: oral administration; frontal cortex, hippocampus, striatum, reticular formation
Experimental: Supplementing in-vivo experiments on unrestrained rats by means of quantitative detection of the electric brain activity (tele-stereo-EEG). Observed were adult, unrestrained Fischer-344 rats with implanted 4 bipolar concentric brain electrodes. A continuous in-vivo analysis of the electric field potential (tele-stereo-EEG) of the frontal cortex, hippocampus, striatum, and reticular formation was performed analogous to Dimpfel et. al 1986. Additionally, the mobility of the rats was measured using a video tracking system by GJB […] GmbH, […], Germany. […] The “tele-stereo-EEG” model on unrestrained rats was chosen as the in-vivo model to validate results that were obtained following the rat-hippocampus in-vitro experiments, in particular the crossing of the blood-brain barrier for the described substances.

O=C(O)[C@]1(O)C[C@@H](O)[C@@H](O)[C@H](O)C1 [quinic acid]
influence on hippocampal electrical activity [1]: stimulating substances | electric field potentials (tele-stereo-EEG) (Fischer-344 rats): principally contribute to the measured results

CCNC(=O)CC[C@H](N)C(=O)O [theanine, 5-N-ethyl-L-glutamine]
influence on hippocampal electrical activity [1]: opposite effect | electric field potentials (tele-stereo-EEG) (Fischer-344 rats): principally contribute to the measured results

O=C(O[C@@H]1C[C@@](O)(C(=O)O)C[C@@H](O)[C@@H]1O)c1cc(O)c(O)c(O)c1 [theogallin, 5-galloyl quinic acid]
influence on hippocampal electrical activity [1]: stimulating substances | electric field potentials (tele-stereo-EEG) (Fischer-344 rats): principally contribute to the measured results

N[C@@H](CCC(=O)O)C(=O)O [Glutamic acid, glutamic acid]
influence on hippocampal electrical activity [1]: stimulating substances
